{"source": "patent US8394781B2", "about": "“Disaccharides for the treatment of tendons, ligaments, and bones” (Bioiberica, S.A., priority 2007, dated 2013)", "tested_on": "human tenocytes", "test": "Human tenocyte adhesion and proliferation, in vitro culture, manual count in ten microscopic fields", "assay_type": "cell-based", "settings": "IGF-1 10 ng/mL, same increase reached after 9 hours, FIG. 2", "protocol": "The objective was to determine the effect of compound Ic on human tenocyte proliferation and adhesion in an in vitro culture model, since a drug stimulating tenocyte proliferation and adhesion could be especially useful in the treatment or repair of tendons.\nFor comparison purposes, the effect of the growth factor IGF-1 on human tenocyte proliferation and adhesion in the same type of in vitro culture model was determined.\nThe increase of adhered tenocytes was quantified by means of manual count in ten microscopic fields.\nHuman tendon explants (of approximately 3-5 mm) were cultured in a culture flask with culture medium formed by 10% FCS, DMEM/Ham-12 (50/50) (Dulbecco's Modified Eagle's Medium with Ham-12), 50 IU/mL of penicillin/streptomycin, […] of ascorbic acid, 2.5 μg/mL of amphotericin B, 1% glutamine and 1% essential amino acids. […]\nTwelve-well plates were prepared with 15,000 tenocytes/well and they were incubated with 10% FCS (fetal calf serum). On the following day, the cells were washed three times with serum-free culture medium (0.5% FCS) and were incubated for 30 minutes with serum-free culture medium, after which the control cultures were counted (time “0 hours”). […]\nIn all the assays, the cells were incubated for 71 hours and each well was evaluated in each time period by means of a manual count in 10 microscopic fields. […]", "data": [{"substance": "IGF-1: growth factor IGF-1 (Insulin-like Growth Factor 1), used for comparison at 10 ng/mL", "values": [{"measurement": "increase in the number of adhered tenocytes with respect to the control", "result": "~45", "unit": "%"}]}]}
